# Data published in publication PMC11277476, “Synthesis and Biological Evaluation of Novel 2-Aroyl Benzofuran-Based Hydroxamic Acids as Antimicrotubule Agents” (International Journal of Molecular Sciences, 2024).
# Columns and labels:
# HeLa cells [1] = assay: In vitro growth inhibition (resazurin, 72 h), HeLa; type: cell-based; conditions: Homo sapiens, concentration inhibiting tumor cell proliferation by 50%, mean ± SE
# MDA-MB-231 cells = assay: In vitro growth inhibition (resazurin, 72 h), MDA-MB-231; type: cell-based; conditions: Homo sapiens, mean ± SE
# bovine brain tubulin = assay: Inhibition of tubulin polymerization (turbidimetric); type: biochemical; conditions: tubulin at 10 μM; 20 min incubation at 30 °C; read-out: Tubulin Assembly IC50 ± SD
# How it was run: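 Assembly: 10 μM bovine brain tubulin preincubated with compound in 0.8 M monosodium glutamate pH 6.6 at 30 °C, chilled, GTP added, then warmed to 30 °C and followed turbidimetrically. Colchicine binding: 0.5 μM tubulin with 5 μM [3H]colchicine and 5 μM compound, DEAE-cellulose filter by gravity.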
# HT-29 cells [2] = assay: Annexin V-PI flow cytometric analysis of apoptosis, HT-29; type: cell-based, human; conditions: 96 h
# Procedure: (§1) The quantification of apoptosis induced by the test compounds was carried out with flow cytometric analysis using the Annexin-V Fluos kit (Roche Diagnostics, Milan, Italy) following the manufacturer’s instructions. Cancer cells treated with the test compounds for the indicated time points and concentrations were then labeled with annexin V/FITC and PI and analyzed with BD FACS Celesta^TM Flow Cytometer (BD Bioscience, Franklin Lakes, NJ, USA) using the FL1 and FL3 channel, respectively, and FlowJo_v10.7.1 software.
# HT-29 cells [3] = assay: Cell cycle analysis (PI, flow cytometry); type: cell-based, human; conditions: 250 nM for 24 h (figure legend)
# Procedure: HT29 cells were treated with the indicated compounds for 24 h and then harvested and fixed in 70% ice-cold ethanol for 24 h. The cells were next treated with a 0.1% v/v solution of Triton X-100 in phosphate buffered saline (PBS) containing 10 μg/mL RNAse A and 20 μg/mL PI. The cells were incubated at room temperature for 30 min and then analyzed on a BD FACS Celesta^TM Flow Cytometer (BD Bioscience, Franklin Lakes, NJ, USA) in the FL3 channel. DNA histograms were analyzed using FlowJo_v10.7.1 software (BD Bioscience, Franklin Lakes, NJ, USA).
# [4] = tested on: tubulin (colchicine site); assay: Inhibition of [3H]colchicine binding to tubulin; set-up: species or system bovine; conditions: tubulin 0.5 µM, [3H]colchicine 5 µM, tested compound 5 µM
# Procedure: Bovine brain tubulin was purified as described previously. To evaluate the effects of the compounds on tubulin assembly in vitro [77], varying concentrations were preincubated with 10 μM tubulin in 0.8 M monosodium glutamate (pH 6.6) at 30 °C, and the reaction mixtures were then cooled to 0 °C. After addition of GTP, the mixtures were transferred to 0 °C cuvettes in Beckman Coulter (Brea, CA, USA) DU-7400/DU-7500 recording spectrophotometers equipped with electronic temperature controllers and were warmed to 30 °C, and the assembly of tubulin was observed turbidimetrically. […] Inhibition of colchicine binding to tubulin was measured as described before, except that the reaction mixtures contained 0.5 μM tubulin and 5 μM each of [^3H]colchicine and test compound. Only one DEAE-cellulose filter was used per sample, and filtration was via gravity.
# HeLa cells [5] = assay: Annexin V-PI flow cytometric analysis of apoptosis, HeLa; type: cell-based, human; conditions: 48 h, lower dose tested 25 nM
# Procedure: as §1
# [6] = tested on: human peripheral blood mononuclear cells (PBMC), not stimulated with PHA; assay: Cytotoxicity in resting PBMC (resazurin, 72 h); type: cell-based; conditions: mean ± SEM
# Excerpt: (§2) Peripheral blood mononuclear cells (PBMC), obtained from human peripheral blood (leucocyte-rich plasma-buffy coats) of healthy volunteers using a Lymphoprep^TM (Serumwerk Bernburg AG) gradient, were used for the evaluation of the cytotoxic potential of compounds in normal human cells.
# (§3) After extensive washing with saline solution (Hank’s Buffer Saline Solution, BioConcept, Allschwil, Switzerland), quiescent PBMCs were resuspended (1.0 × 10^6 cells/mL) in RPMI-1640 medium supplemented with 10% FBS. To evaluate cytotoxicity in proliferating PBMCs cultures, cells were resuspended at a concentration of 5 × 10^5 cells/mL in a growth medium containing […] of PHA (Irvine Scientific, Santa Ana, CA, USA). The same cellular density was utilized for resting PBMC cultures, without the addition of PHA. The tested compounds were added at different concentrations, and after a 72 h incubation, cell viability was determined using the resazurin test as described above.
# human recombinant HDAC6 = biological target: T1, human recombinant HDAC6 (Homo sapiens, UniProt Q9UBN7); assay: HDAC isoform inhibition, fluorogenic substrate, HDAC6; type: biochemical; conditions: mean ± SE, read-out: IC50 (µM) hHDAC6
# T1 construct: purchased BPS Bioscience 50056
# T1 sequence (Q9UBN7 1-1215): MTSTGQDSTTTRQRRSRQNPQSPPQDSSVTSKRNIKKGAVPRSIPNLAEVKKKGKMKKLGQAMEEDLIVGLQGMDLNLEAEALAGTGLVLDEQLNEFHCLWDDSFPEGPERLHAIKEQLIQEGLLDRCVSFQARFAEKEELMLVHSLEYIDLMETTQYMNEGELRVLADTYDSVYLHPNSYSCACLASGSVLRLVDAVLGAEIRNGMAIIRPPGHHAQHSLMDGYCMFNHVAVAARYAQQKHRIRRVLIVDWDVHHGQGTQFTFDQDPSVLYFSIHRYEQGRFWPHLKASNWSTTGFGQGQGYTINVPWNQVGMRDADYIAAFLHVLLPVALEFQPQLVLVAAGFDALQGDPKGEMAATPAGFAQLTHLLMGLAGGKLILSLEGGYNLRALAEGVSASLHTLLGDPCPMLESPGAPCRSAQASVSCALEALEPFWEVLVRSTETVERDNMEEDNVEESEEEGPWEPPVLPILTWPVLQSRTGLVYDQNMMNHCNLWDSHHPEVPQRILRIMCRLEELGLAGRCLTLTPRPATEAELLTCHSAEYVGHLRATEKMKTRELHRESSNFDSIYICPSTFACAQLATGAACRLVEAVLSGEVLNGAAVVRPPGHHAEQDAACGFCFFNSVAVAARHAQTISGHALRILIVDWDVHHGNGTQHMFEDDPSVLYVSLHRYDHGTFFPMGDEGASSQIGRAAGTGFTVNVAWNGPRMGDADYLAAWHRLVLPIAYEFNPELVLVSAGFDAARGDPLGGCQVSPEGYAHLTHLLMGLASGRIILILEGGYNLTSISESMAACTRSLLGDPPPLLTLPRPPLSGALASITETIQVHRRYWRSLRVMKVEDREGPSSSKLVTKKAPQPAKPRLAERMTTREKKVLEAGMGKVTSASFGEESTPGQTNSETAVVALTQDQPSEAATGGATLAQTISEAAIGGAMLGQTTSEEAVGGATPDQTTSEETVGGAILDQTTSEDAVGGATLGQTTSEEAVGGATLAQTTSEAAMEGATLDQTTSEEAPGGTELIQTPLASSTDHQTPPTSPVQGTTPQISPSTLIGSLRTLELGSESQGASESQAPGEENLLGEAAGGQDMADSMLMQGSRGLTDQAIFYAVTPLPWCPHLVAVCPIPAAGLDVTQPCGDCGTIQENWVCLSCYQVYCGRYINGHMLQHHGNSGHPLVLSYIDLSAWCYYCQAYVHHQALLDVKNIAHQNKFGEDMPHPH
# Procedure: Further experiments were also carried out to evaluate the inhibitory activities of test compounds on selected HDAC isoforms. […] Following an incubation of 15 min at RT, fluorescence was measured in an EnSight multimodal plate reader (PerkinElmer, Boston, MA, USA) with an excitation wavelength of 360 nm and an emission wavelength of 450 nm.
# HT-29 cells [7] = assay: In vitro growth inhibition (resazurin, 72 h), HT-29; type: cell-based; conditions: Homo sapiens, mean ± SE
# A549 cells = assay: In vitro growth inhibition (resazurin, 72 h), A549; type: cell-based; conditions: Homo sapiens, mean ± SE
# [8] = tested on: acetylated histone H3 (Ac-H3K9) in HT-29 cells; assay: Western blot of acetylated histone H3 (Ac-H3K9) in HT-29 cells; type: cell-based, human; conditions: 10 µM, 6 h
# Procedure: HT-29 cells were treated with selected compounds for 6 h at 10 µM, lysed, and then processed as previously described.
# Antibodies directed against total histone H3 and its acetylated form (Ac-H3K9) were purchased from Cell Signaling Technology, Danvers, Massachusetts, while anti-vinculin antibody was purchased from Santa Cruz Biotechnology. Membranes were visualized using ECL select (GE Healthcare), and images were acquired using the iBright FL1500 Imaging System (Thermo Fisher Scientific, Waltham, MA, USA). Anti-vinculin (1:25,000, Santa Cruz Biotechnology, Dallas, TX, USA) was used as loading controls.
# MCF-7 cells = assay: In vitro growth inhibition (resazurin, 72 h), MCF-7; type: cell-based; conditions: Homo sapiens, MCF7, mean ± SE
# [9] = tested on: human peripheral blood mononuclear cells (PBMC) stimulated with PHA; assay: Cytotoxicity in PHA-stimulated PBMC (resazurin, 72 h); type: cell-based; conditions: mean ± SEM
# Excerpt: as §2, §3
SMILES,IC50 (HeLa cells [1]) [nM],IC50 (MDA-MB-231 cells) [nM],IC50 (bovine brain tubulin) [nM],"induction of apoptosis / cell death (annexin V/PI), in words (HT-29 cells [2])",Percentage of HT-29 cells in G1 phase (HT-29 cells [3]) [%],Percentage of HT-29 cells in G2/M phase (HT-29 cells [3]) [%],Percentage of HT-29 cells in S phase (HT-29 cells [3]) [%],Colchicine Binding % Inhibition ± SD [4] [%],"cytotoxic effect (annexin V/PI), in words (HeLa cells [5])",GI50 [6] [µM],IC50 (human recombinant HDAC6) [µM],IC50 (HT-29 cells [7]) [nM],IC50 (A549 cells) [nM],"acetylated histone H3 (Ac-H3K9) level, Western blot [8]",IC50 (MCF-7 cells) [nM],GI50 [9] [µM]
"COc1ccc(/C=C\c2cc(OC)c(OC)c(OC)c2)cc1O [CA-4, combretastatin A-4, reference compound]",4.6 ± 0.1,[…],[…],completely resistant,41.83,27.38,30.79,98 ± 2,greatest cytotoxic effects at the lower dose tested,,,,,,,
"COc1cc2oc(C(=O)c3ccccc3OC)c(C)c2cc1/C=C/C(=O)NO [Compound 6f, (E)-N-Hydroxy-3-(6-methoxy-2-(2-methoxybenzoyl)-3-methylbenzofuran-5-yl)acrylamide]",3.9 ± 0.01,41.9 ± 2.33,1200 ± 100,able to induce cell apoptosis,6.12,87.54,6.34,76 ± 2,,> 10,6.12 ± 0.41,75.3 ± 3.09,168 ± 5.31,significantly increased acetylated histone H3 (Ac-H3K9),24 ± 8,0.51 ± 0.1
"COc1cc2oc(C(=O)c3ccccc3)c(C)c2cc1/C=C/C(=O)NO [Compound 6g, (E)-3-(2-Benzoyl-6-methoxy-3-methylbenzofuran-5-yl)-N-hydroxyacrylamide]",0.36 ± 0.01,23.9 ± 0.77,690 ± 100,able to induce cell apoptosis,34.91,40.74,24.35,86 ± 5,greatest cytotoxic effects at the lower dose tested,> 10,10.2 ± 0.7,80.3 ± 1.31,36.7 ± 0.91,,30 ± 0.7,0.15 ± 0.02
"COc1cc2oc(C(=O)c3cc(OC)c(OC)c(OC)c3)cc2cc1/C=C/C(=O)NO [Compound 6i, (E)-N-Hydroxy-3-(6-methoxy-2-(3,4,5-trimethoxybenzoyl)benzofuran-5-yl)acrylamide]",14.8 ± 0.32,93.7 ± 2.04,1600 ± 300,able to induce cell apoptosis,4.13,91.07,4.79,43 ± 4,,> 10,5.16 ± 0.34,272 ± 2.03,304 ± 1.46,significantly increased acetylated histone H3 (Ac-H3K9),69 ± 6,2.32 ± 0.23
